The values that follow are results of earlier work, collected in patent publication US20120003119A1, “ANTIMICROBIAL PEPTIDES” (priority 2007, published 2012).

The conditions of series [1]: combined with either magainin I or magainin II in a 1:1 molar ratio.
The subject of the next series is Pseudomonas aeruginosa. The following applies: tested against the bacteria Pseudomonas aeruginosa; relative to XPF.
A further series has as its system animal red blood cells. The following applies: melittin isolated from bee venom.

Turning to PGLa, the antimicrobial activity increased in series [1] is listed as 20-50 fold. Besides, the “times more active than XPF” value in the series with Pseudomonas aeruginosa is 4-5 times. For `CC[C@H](C)[C@H](NC(=O)CN)C(=O)NCC(=O)N[C@@H](C)C(=O)N[C@H](C(=O)N[C@@H](CC(C)C)C(=O)N[C@@H](CCCCN)C(=O)N[C@H](C(=O)N[C@@H](CC(C)C)C(=O)N[C@H](C(=O)N[C@H](C(=O)NCC(=O)N[C@@H](CC(C)C)C(=O)N1CCC[C@H]1C(=O)N[C@@H](C)C(=O)N[C@@H](CC(C)C)C(=O)N[C@H](C(=O)N[C@@H](CO)C(=O)N[C@@H](Cc1c[nH]c2ccccc12)C(=O)N[C@H](C(=O)N[C@@H](CCCCN)C(=O)N[C@@H](CCCNC(=N)N)C(=O)N[C@@H](CCCCN)C(=O)N[C@@H](CCCNC(=N)N)C(=O)N[C@@H](CCC(N)=O)C(=O)N[C@@H](CCC(N)=O)C(N)=O)[C@@H](C)CC)[C@@H](C)CC)[C@@H](C)O)[C@@H](C)O)C(C)C)C(C)C` [melittin], the “lytic to both microorganisms and animal red blood cells” value in the series with animal red blood cells is given as “very lytic”.
